Laboratory results: the NIST ThermoML archive (doi:10.1021/je100875a)
± gives the expanded uncertainty stated by the source.

Experiment: mn = molality of the nth substance listed, in mol/kg
Settings: 101 kPa, Liquid

O=[N+]([O-])[O-].O=[N+]([O-])[O-].O=[N+]([O-])[O-].[Ce+3] [cerium nitrate] + O
mass density [kg/m3]
Settings | m1 = 0.5112 | m1 = 1.031 | m1 = 1.555 | m1 = 1.997 | m1 = 3.131 | m1 = 3.968 | m1 = 4.462
293.15 K | 1131.2 ± 0.2 | 1252.8 ± 0.3 | 1361.9 ± 0.4 | 1446.2 ± 0.4 | 1633.2 ± 0.6 | 1746.4 ± 0.6 | 1806 ± 0.7
298.15 K | 1129.3 ± 0.2 | 1250.2 ± 0.3 | 1358.8 ± 0.3 | 1443.1 ± 0.4 | 1629.1 ± 0.6 | 1742.4 ± 0.6 | 1801.8 ± 0.7
308.15 K | 1124.7 ± 0.2 | 1244.4 ± 0.3 | 1352 ± 0.3 | 1435.7 ± 0.4 | 1620.5 ± 0.6 | 1733.1 ± 0.6 | 1792.2 ± 0.7

O=[N+]([O-])[O-].O=[N+]([O-])[O-].O=[N+]([O-])[O-].[La+3] [lanthanum(III) nitrate] + O
mass density [kg/m3]
Settings | m1 = 0.4953 | m1 = 0.9893 | m1 = 1.48 | m1 = 1.97 | m1 = 2.93 | m1 = 3.9 | m1 = 4.385
293.15 K | 1125.6 ± 0.2 | 1240.6 ± 0.3 | 1343.1 ± 0.3 | 1436.9 ± 0.4 | 1595.8 ± 0.5 | 1729.3 ± 0.6 | 1787.9 ± 0.7
298.15 K | 1123.8 ± 0.2 | 1238.1 ± 0.3 | 1340.1 ± 0.3 | 1433.6 ± 0.4 | 1591.8 ± 0.5 | 1725.3 ± 0.6 | 1783.8 ± 0.7
308.15 K | 1119.2 ± 0.2 | 1231.6 ± 0.3 | 1333.5 ± 0.3 | 1426.3 ± 0.4 | 1583.4 ± 0.5 | 1716.3 ± 0.6 | 1774.6 ± 0.7

O=[N+]([O-])[O-].O=[N+]([O-])[O-].O=[N+]([O-])[O-].[Nd+3] [neodymium(III) nitrate] + O
mass density [kg/m3]
Settings | m1 = 0.522 | m1 = 1.021 | m1 = 1.555 | m1 = 2.093 | m1 = 3.086 | m1 = 4.124 | m1 = 4.297
566.3 K | 1136.1 ± 0.4 | 1255.1 ± 0.5 | 1369.8 ± 0.6 | 1474.7 ± 0.7 | 1642.1 ± 0.9 | 1785.9 ± 1.1 | 1807 ± 1.1
571.3 K | 1134.2 ± 0.4 | 1252.5 ± 0.5 | 1366.7 ± 0.6 | 1471.1 ± 0.7 | 1637.8 ± 0.9 | 1781.1 ± 1.1 | 1802.7 ± 1.2
581.3 K | 1129.6 ± 0.4 | 1246.7 ± 0.5 | 1359.9 ± 0.7 | 1463.5 ± 0.8 | 1628.8 ± 1 | 1771.4 ± 1.1 | 1792.8 ± 1.2

O=[N+]([O-])[O-].O=[N+]([O-])[O-].O=[N+]([O-])[O-].[Y+3] [yttrium nitrate] + O
mass density [kg/m3]
Settings | 293.15 K | 298.15 K | 308.15 K
m1 = 0.2775 | – | 1057.4 ± 0.2 | –
m1 = 0.3213 | – | 1066.6 ± 0.2 | –
m1 = 0.3706 | – | 1076.9 ± 0.2 | –
m1 = 0.4172 | – | 1086.5 ± 0.2 | –
m1 = 0.4989 | 1105.5 ± 0.2 | 1103.5 ± 0.2 | 1099.2 ± 0.2
m1 = 0.9965 | 1202.6 ± 0.2 | 1200.2 ± 0.2 | 1194.7 ± 0.2
m1 = 1.497 | 1290.8 ± 0.3 | 1287.8 ± 0.3 | 1281.4 ± 0.3
m1 = 1.982 | 1368.7 ± 0.4 | 1365.4 ± 0.4 | 1358.2 ± 0.3
m1 = 2.947 | 1502.8 ± 0.5 | 1498.9 ± 0.5 | 1490.5 ± 0.5
m1 = 3.945 | 1615.7 ± 0.5 | 1611.4 ± 0.5 | 1602.2 ± 0.5
m1 = 4.957 | 1708.9 ± 0.6 | 1704.3 ± 0.6 | 1694.7 ± 0.6
